Test results published in article PMC5218480 (PLoS ONE, 2017).

Test system: MV-4-11 cells
Experiment: Gene expression microarray analysis (Affymetrix PrimeView) and GSEA
Format: cell-based, human
Design: RFU PODN (11730768_x_at) / Fold change /veh PODN (11730768_x_at) / RFU LINC00158 (11744669_a_at) / Fold change /veh LINC00158 (11744669_a_at) / RFU DUSP10 (11751237_a_at) / Fold change /veh DUSP10 (11751237_a_at) / RFU ID3 (11757404_x_at) / Fold change /veh ID3 (11757404_x_at) / RFU PLEKHG5 (11737974_s_at) / Fold change /veh PLEKHG5 (11737974_s_at) / RFU LRRC4B (11730491_at) / Fold change /veh LRRC4B (11730491_at) / RFU GIMAP4 (11747438_a_at) / Fold change /veh GIMAP4 (11747438_a_at) / RFU KRT8 (11758183_x_at) / Fold change /veh KRT8 (11758183_x_at) / RFU CNN1 (11734310_a_at) / Fold change /veh CNN1 (11734310_a_at) / RFU VPS37D (11726825_at) / Fold change /veh VPS37D (11726825_at) / RFU C10orf10 (11716522_x_at) / Fold change /veh C10orf10 (11716522_x_at) / RFU KIR2DL2 /// KIR2DL4 /// KIR2DL5A /// KIR2DL5B /// KIR2DS1 /// KIR2DS2 /// KIR2DS3 /// KIR2DS4 /// KIR3DL3 /// KIR3DL3 /// KIR3DS1 (11738374_at) / Fold change /veh KIR2DL2 /// KIR2DL4 /// KIR2DL5A /// KIR2DL5B /// KIR2DS1 /// KIR2DS2 /// KIR2DS3 /// KIR2DS4 /// KIR3DL3 /// KIR3DL3 /// KIR3DS1 (11738374_at) / RFU C1QL1 (11718748_at) / Fold change /veh C1QL1 (11718748_at) / RFU TMPRSS4 (11747572_a_at) / Fold change /veh TMPRSS4 (11747572_a_at) / RFU HAMP (11756126_x_at) / Fold change /veh HAMP (11756126_x_at) / RFU RNFT2 (11725882_a_at) / Fold change /veh RNFT2 (11725882_a_at) / RFU NR4A2 (11747474_a_at) / Fold change /veh NR4A2 (11747474_a_at) / RFU ABCC12 (11746883_a_at) / Fold change /veh ABCC12 (11746883_a_at) / RFU TMEM136 (11760407_x_at) / Fold change /veh TMEM136 (11760407_x_at) / RFU CLDN22 /// WWC2 (11732394_at) / Fold change /veh CLDN22 /// WWC2 (11732394_at) / RFU HLA-DPB1 (11760878_x_at) / Fold change /veh HLA-DPB1 (11760878_x_at) / RFU SPINT1 (11716480_a_at) / Fold change /veh SPINT1 (11716480_a_at) / RFU GAP43 (11754022_s_at) / Fold change /veh GAP43 (11754022_s_at) / RFU A4GNT (11735810_at) / Fold change /veh A4GNT (11735810_at) / RFU PRB3 (11715151_x_at) / Fold change /veh PRB3 (11715151_x_at) / RFU TUBB4B (11761932_at) / Fold change /veh TUBB4B (11761932_at) / RFU CAPN14 (11732068_a_at) / Fold change /veh CAPN14 (11732068_a_at) / RFU TMCC2 (11721928_a_at) / Fold change /veh TMCC2 (11721928_a_at) / RFU IRGQ (11745062_a_at) / Fold change /veh IRGQ (11745062_a_at) / RFU FAM174B (11720279_a_at) / Fold change /veh FAM174B (11720279_a_at) / RFU TMPRSS4 (11748680_a_at) / Fold change /veh TMPRSS4 (11748680_a_at) / RFU FAM212B (11763350_a_at) / Fold change /veh FAM212B (11763350_a_at) / RFU PLEKHG5 (11743358_a_at) / Fold change /veh PLEKHG5 (11743358_a_at) / RFU ZSCAN30 (11745921_a_at) / Fold change /veh ZSCAN30 (11745921_a_at) / RFU CMKLR1 (11741424_a_at) / Fold change /veh CMKLR1 (11741424_a_at) / RFU LOC101060620 /// MAPK8IP1 (11723275_at) / Fold change /veh LOC101060620 /// MAPK8IP1 (11723275_at) / RFU SPTSSB (11747773_x_at) / Fold change /veh SPTSSB (11747773_x_at) / RFU PRSS12 (11739890_at) / Fold change /veh PRSS12 (11739890_at) / RFU BIN1 (11741810_x_at) / Fold change /veh BIN1 (11741810_x_at) / RFU WNT11 (11732464_a_at) / Fold change /veh WNT11 (11732464_a_at) / RFU C10orf10 (11716521_a_at) / Fold change /veh C10orf10 (11716521_a_at) / RFU C5orf56 (11738089_at) / Fold change /veh C5orf56 (11738089_at) / RFU CYB561 (11721691_x_at) / Fold change /veh CYB561 (11721691_x_at) / RFU ANKRD19P (11752326_a_at) / Fold change /veh ANKRD19P (11752326_a_at) / RFU OR2T12 /// OR2T33 /// OR2T8 (11738714_s_at) / Fold change /veh OR2T12 /// OR2T33 /// OR2T8 (11738714_s_at) / RFU VCAN (11748164_a_at) / Fold change /veh VCAN (11748164_a_at) / RFU JSRP1 (11732532_at) / Fold change /veh JSRP1 (11732532_at) / RFU KRTAP10-11 (11738290_x_at) / Fold change /veh KRTAP10-11 (11738290_x_at) / RFU MYO3A (11730013_a_at) / Fold change /veh MYO3A (11730013_a_at) / RFU EBF3 (11725865_a_at) / Fold change /veh EBF3 (11725865_a_at) / RFU CAMK2N1 (11719241_x_at) / Fold change /veh CAMK2N1 (11719241_x_at) / RFU C5orf56 (11738088_a_at) / Fold change /veh C5orf56 (11738088_a_at) / RFU OLFML3 (11715873_a_at) / Fold change /veh OLFML3 (11715873_a_at) / RFU LOC100653217 /// NTM (11731650_a_at) / Fold change /veh LOC100653217 /// NTM (11731650_a_at) / RFU MAPK11 (11762145_a_at) / Fold change /veh MAPK11 (11762145_a_at) / RFU FIZ1 (11724087_x_at) / Fold change /veh FIZ1 (11724087_x_at) / RFU OASL (11726364_x_at) / Fold change /veh OASL (11726364_x_at) / RFU SOX15 (11748057_x_at) / Fold change /veh SOX15 (11748057_x_at) / RFU CD79A (11719716_a_at) / Fold change /veh CD79A (11719716_a_at) / RFU HIST1H1D (11736915_at) / Fold change /veh HIST1H1D (11736915_at) / RFU CASKIN2 (11723855_a_at) / Fold change /veh CASKIN2 (11723855_a_at) / RFU LOC730098 (11760151_x_at) / Fold change /veh LOC730098 (11760151_x_at) / RFU OR4N2 (11742367_at) / Fold change /veh OR4N2 (11742367_at) / RFU PRRT2 (11749266_a_at) / Fold change /veh PRRT2 (11749266_a_at) / RFU SNX32 (11753110_a_at) / Fold change /veh SNX32 (11753110_a_at) / RFU CDHR5 (11726645_a_at) / Fold change /veh CDHR5 (11726645_a_at) / RFU RCAN1 (11760418_a_at) / Fold change /veh RCAN1 (11760418_a_at) / RFU FAM167A (11723789_a_at) / Fold change /veh FAM167A (11723789_a_at) / RFU FAM26E (11764081_at) / Fold change /veh FAM26E (11764081_at) / RFU ISYNA1 (11749810_s_at) / Fold change /veh ISYNA1 (11749810_s_at) / RFU ACY1 (11761880_at) / Fold change /veh ACY1 (11761880_at) / RFU 11764098_at / Fold change /veh 11764098_at / RFU SAMD14 (11745864_x_at) / Fold change /veh SAMD14 (11745864_x_at) / RFU NPB (11741838_a_at) / Fold change /veh NPB (11741838_a_at) / RFU TMPRSS6 (11731388_a_at) / Fold change /veh TMPRSS6 (11731388_a_at) / RFU KRTAP10-2 (11738614_at) / Fold change /veh KRTAP10-2 (11738614_at) / RFU ARHGAP8 /// PRR5-ARHGAP8 (11727945_x_at) / Fold change /veh ARHGAP8 /// PRR5-ARHGAP8 (11727945_x_at) / RFU KRTAP5-7 /// NADSYN1 (11734609_at) / Fold change /veh KRTAP5-7 /// NADSYN1 (11734609_at) / RFU RASL12 (11751679_a_at) / Fold change /veh RASL12 (11751679_a_at) / RFU CDKN2B (11736163_a_at) / Fold change /veh CDKN2B (11736163_a_at) / RFU PRF1 (11729649_at) / Fold change /veh PRF1 (11729649_at) / RFU, ZNF638 /// ZNF638-IT1 / Fold change vs veh, ZNF638 /// ZNF638-IT1 / RFU, PANK3 / Fold change vs veh, PANK3 / RFU, SH3YL1 / Fold change vs veh, SH3YL1 / RFU, ZEB2 / Fold change vs veh, ZEB2 / RFU, NRIP1 / Fold change vs veh, NRIP1 / RFU, PTTG1IP / Fold change vs veh, PTTG1IP / RFU, CAPN2 / Fold change vs veh, CAPN2 / RFU, MED14 / Fold change vs veh, MED14 / RFU, SNORA58 / Fold change vs veh, SNORA58 / RFU, C1orf63 / Fold change vs veh, C1orf63 / RFU, LRRFIP1 / Fold change vs veh, LRRFIP1 / RFU, NDUFAF7 / Fold change vs veh, NDUFAF7 / RFU, SLC12A2 / Fold change vs veh, SLC12A2 / RFU, IBTK / Fold change vs veh, IBTK / RFU, ESF1 / Fold change vs veh, ESF1 / Fold change vs veh, TMEM50B / RFU, TAOK1 / Fold change vs veh, TAOK1 / RFU, ACBD3 / Fold change vs veh, ACBD3 / RFU, TMA16 / Fold change vs veh, TMA16 / RFU, RWDD3 / Fold change vs veh, RWDD3 / RFU, BCAT1 / Fold change vs veh, BCAT1 / RFU, EDEM3 / Fold change vs veh, EDEM3 / RFU, TMEM33 / Fold change vs veh, TMEM33 / RFU, WDR75 / Fold change vs veh, WDR75 / RFU, AHCTF1 / Fold change vs veh, AHCTF1 / RFU, TFRC / Fold change vs veh, TFRC / RFU, ZDHHC17 / Fold change vs veh, ZDHHC17 / RFU, NOM1 / Fold change vs veh, NOM1 / RFU, ARL8B / Fold change vs veh, ARL8B / RFU, ZBTB11 / Fold change vs veh, ZBTB11 / RFU, TAMM41 / Fold change vs veh, TAMM41 / RFU, KIAA1704 /// LOC100996395 / Fold change vs veh, KIAA1704 /// LOC100996395 / RFU, ING1 / Fold change vs veh, ING1 / RFU, TRMT61B / Fold change vs veh, TRMT61B / RFU, FUBP3 / Fold change vs veh, FUBP3 / RFU, TP53 / Fold change vs veh, TP53 / RFU, TNKS2 / Fold change vs veh, TNKS2 / RFU, ZFP14 / Fold change vs veh, ZFP14 / RFU, ACTR2 / Fold change vs veh, ACTR2 / RFU, PPP3R1 / Fold change vs veh, PPP3R1 / RFU, PIK3R1 / Fold change vs veh, PIK3R1 / RFU, HNRNPA1 / Fold change vs veh, HNRNPA1 / RFU, RNF170 / Fold change vs veh, RNF170 / RFU, ZNF28 / Fold change vs veh, ZNF28 / RFU, RNGTT / Fold change vs veh, RNGTT / RFU, OGT / Fold change vs veh, OGT / RFU, BRD1 / Fold change vs veh, BRD1 / RFU, MARS / Fold change vs veh, MARS / RFU, ZNF655 / Fold change vs veh, ZNF655 / RFU, FAHD1 / Fold change vs veh, FAHD1 / RFU, BDP1 / Fold change vs veh, BDP1 / RFU, LRRCC1 / Fold change vs veh, LRRCC1 / RFU, ARID1A / Fold change vs veh, ARID1A / RFU, ZNF146 / Fold change vs veh, ZNF146 / RFU, ZNF330 / Fold change vs veh, ZNF330 / RFU, GPN3 / Fold change vs veh, GPN3 / RFU, C9orf123 / Fold change vs veh, C9orf123 / RFU, N4BP2L2 / Fold change vs veh, N4BP2L2 / RFU, ARFIP1 / Fold change vs veh, ARFIP1 / RFU, FAM179B / Fold change vs veh, FAM179B / RFU, BCL10 / Fold change vs veh, BCL10 / RFU, UHRF1BP1L / Fold change vs veh, UHRF1BP1L / RFU, BET1 / Fold change vs veh, BET1 / RFU, CNOT2 / Fold change vs veh, CNOT2 / RFU, ZNF268 / Fold change vs veh, ZNF268 / Fold change vs veh, ZNF507 / RFU, DGCR2 / Fold change vs veh, DGCR2 / RFU, WDSUB1 / Fold change vs veh, WDSUB1 / Fold change vs veh, HSP90B1 /// MIR3652 / RFU, ADSS / Fold change vs veh, ADSS / RFU, GK / Fold change vs veh, GK / RFU, ZNF148 / Fold change vs veh, ZNF148 / RFU, TAF9 / Fold change vs veh, TAF9 / RFU, SLC1A5 / Fold change vs veh, SLC1A5 / RFU, SLMO2 / Fold change vs veh, SLMO2 / RFU, ABCC4 / Fold change vs veh, ABCC4 / RFU, LOC101060439 /// RAP1B / Fold change vs veh, LOC101060439 /// RAP1B / RFU, RFX7 / Fold change vs veh, RFX7 / RFU, GTPBP10 / Fold change vs veh, GTPBP10 / RFU, CNEP1R1 / Fold change vs veh, CNEP1R1 / RFU, BIVM-ERCC5 /// ERCC5 / Fold change vs veh, BIVM-ERCC5 /// ERCC5 / RFU, ILF3 / Fold change vs veh, ILF3 / RFU 11762660_at / Fold change /veh 11762660_at / RFU VCAN (11757783_s_at) / Fold change /veh VCAN (11757783_s_at) / RFU DDX43 (11728927_at) / Fold change /veh DDX43 (11728927_at) / RFU KRT8 (11758188_x_at) / Fold change /veh KRT8 (11758188_x_at) / RFU NKD1 (11759106_at) / Fold change /veh NKD1 (11759106_at) / RFU SRD5A1 (11742802_a_at) / Fold change /veh SRD5A1 (11742802_a_at) / RFU TPSAB1 /// TPSB2 (11721975_s_at) / Fold change /veh TPSAB1 /// TPSB2 (11721975_s_at) / RFU GSTM3 (11746129_a_at) / Fold change /veh GSTM3 (11746129_a_at) / RFU IL23R (11737362_x_at) / Fold change /veh IL23R (11737362_x_at) / RFU TMEM51 (11727254_a_at) / Fold change /veh TMEM51 (11727254_a_at) / RFU PIWIL2 (11732686_x_at) / Fold change /veh PIWIL2 (11732686_x_at) / RFU ORM1 (11744905_x_at) / Fold change /veh ORM1 (11744905_x_at) / RFU CCDC152 (11743942_at) / Fold change /veh CCDC152 (11743942_at) / RFU ECM1 (11717891_a_at) / Fold change /veh ECM1 (11717891_a_at) / RFU IL23R (11748794_a_at) / Fold change /veh IL23R (11748794_a_at) / RFU TNFAIP8L3 (11732012_x_at) / Fold change /veh TNFAIP8L3 (11732012_x_at) / RFU MBOAT4 (11741988_at) / Fold change /veh MBOAT4 (11741988_at) / RFU 11764193_at / Fold change /veh 11764193_at / RFU TMEM53 (11763286_at) / Fold change /veh TMEM53 (11763286_at) / RFU MAGEB2 (11727129_at) / Fold change /veh MAGEB2 (11727129_at) / RFU TMEM200A (11744735_a_at) / Fold change /veh TMEM200A (11744735_a_at) / RFU CCDC152 (11751479_a_at) / Fold change /veh CCDC152 (11751479_a_at) / RFU FAM211A (11726209_a_at) / Fold change /veh FAM211A (11726209_a_at) / RFU RGS16 (11746705_a_at) / Fold change /veh RGS16 (11746705_a_at) / RFU VCAN (11755009_s_at) / Fold change /veh VCAN (11755009_s_at) / RFU RHOB (11743442_s_at) / Fold change /veh RHOB (11743442_s_at) / RFU RGS16 (11720943_a_at) / Fold change /veh RGS16 (11720943_a_at) / RFU RGS16 (11720944_at) / Fold change /veh RGS16 (11720944_at) / RFU, VPS4B / Fold change vs veh, VPS4B / RFU, CREB1 / Fold change vs veh, CREB1 / RFU, DNAJC13 / Fold change vs veh, DNAJC13 / RFU, GNAQ / Fold change vs veh, GNAQ / RFU, CDK5R1 / Fold change vs veh, CDK5R1 / RFU, ZRANB3 / Fold change vs veh, ZRANB3 / RFU, CUL4A / Fold change vs veh, CUL4A / RFU, CCNY / Fold change vs veh, CCNY / RFU, UFL1 / Fold change vs veh, UFL1 / RFU, COG3 / Fold change vs veh, COG3 / RFU, DIAPH2 / Fold change vs veh, DIAPH2 / RFU, SKA2 / Fold change vs veh, SKA2 / RFU, AFF3 / Fold change vs veh, AFF3 / RFU, LMF1 / Fold change vs veh, LMF1 / RFU, IPO11 / Fold change vs veh, IPO11 / RFU, DFFB / Fold change vs veh, DFFB / RFU, FOXP1 / Fold change vs veh, FOXP1 / RFU, CARD8 / Fold change vs veh, CARD8 / RFU, STRN3 / Fold change vs veh, STRN3 / RFU, ADK / Fold change vs veh, ADK / RFU, RASSF2 / Fold change vs veh, RASSF2 / RFU, WIPF1 / Fold change vs veh, WIPF1 / RFU, LARP1B / Fold change vs veh, LARP1B / RFU, RASA1 / Fold change vs veh, RASA1 / RFU, RB1 / Fold change vs veh, RB1 / RFU, PPFIA1 / Fold change vs veh, PPFIA1 / RFU, MAT2A / Fold change vs veh, MAT2A / RFU, CCT5 / Fold change vs veh, CCT5 / RFU, WDR92 / Fold change vs veh, WDR92 / RFU, CUX1 / Fold change vs veh, CUX1 / RFU, TTC7A / Fold change vs veh, TTC7A / RFU, TMEM135 / Fold change vs veh, TMEM135 / RFU, DEPTOR / Fold change vs veh, DEPTOR / RFU, CPM / Fold change vs veh, CPM / RFU, DNAJB6 / Fold change vs veh, DNAJB6 / RFU, CACNA2D3 / Fold change vs veh, CACNA2D3 / RFU, DTX4 / Fold change vs veh, DTX4 / RFU, TFCP2 / Fold change vs veh, TFCP2 / RFU, GMCL1 /// GMCL1P1 / Fold change vs veh, GMCL1 /// GMCL1P1 / RFU, AEBP2 / Fold change vs veh, AEBP2 / RFU, SNHG1 /// SNORD22 /// SNORD25 /// SNORD26 /// SNORD27 /// SNORD28 /// SNORD29 /// SNORD31 / Fold change vs veh, SNHG1 /// SNORD22 /// SNORD25 /// SNORD26 /// SNORD27 /// SNORD28 /// SNORD29 /// SNORD31 / Fold change (Aza/veh), C12orf56 (ProbeSet 11735607_a_at) / Fold change (ACY-1035/veh), C12orf56 (ProbeSet 11735607_a_at) / Fold change (Aza/veh), FGFR1OP (ProbeSet 11751329_s_at) / Fold change (ACY-1035/veh), FGFR1OP (ProbeSet 11751329_s_at) / Fold change (Aza/veh), VPS36 (ProbeSet 11739960_a_at) / Fold change (ACY-1035/veh), VPS36 (ProbeSet 11739960_a_at) / RFU SYPL1 (11715823_x_at) / Fold change /veh SYPL1 (11715823_x_at) / RFU IGFBP7 (11715501_s_at) / Fold change /veh IGFBP7 (11715501_s_at) / RFU REEP3 (11722064_at) / Fold change /veh REEP3 (11722064_at) / RFU IGLL1 (11728026_x_at) / Fold change /veh IGLL1 (11728026_x_at): dose or concentration left out as unconfirmed
Settings: MV-4-11 cells, 48 hours

With `Nc1ncn([C@@H]2O[C@H](CO)[C@@H](O)[C@H]2O)c(=O)n1` [azacitidine] the “Fold change /veh PRRT2 (11749266_a_at)” value was 0.89.
